Measured values reported in BindingDB's records for doi:10.1016/j.chembiol.2010.06.007 (Stanford School of Medicine, 2010).

molecular target: Dipeptidyl aminopeptidase 1 (Plasmodium falciparum); test: DPAP1 inhibtion was measured using DPAP1-specific fluorogenic assay. IC50 DPAP1 were determined after 30 min incubation of parasite lysates with 5 nM to 100 mM inhibitor. ki values were obtained by fitting the data to Equation 1.

IC50 [nM]	SMILES
74000	CCCCC(C(=O)COc1c(F)c(F)cc(F)c1F)n1cc(C(N)Cc2ccccc2)nn1 (configuration not stated) [ML4068]
700	CCCCC(C(=O)COc1c(F)c(F)cc(F)c1F)n1cc(C(N)(CCC)CCC)nn1 (configuration not stated) [ML4124]
> 20000	CCCCC(C(=O)COc1c(F)c(F)cc(F)c1F)n1cc([C@](C)(N)C2CCCCC2)nn1 (some centres not stated) [ML4046B]
700	CCCCC(C(=O)COc1c(F)c(F)cc(F)c1F)n1cc(C(C)N)nn1 (configuration not stated) [ML4057]
410	CCCCC(C(=O)COc1c(F)c(F)cc(F)c1F)n1cc(C(N)(CC)CC)nn1 (configuration not stated) [ML4161]
> 20000	CCCCC(C(=O)COc1c(F)c(F)cc(F)c1F)n1cc(C2(N)CCNCC2)nn1 (configuration not stated) [ML4162]
410	CCCCC(C(=O)COc1c(F)c(F)cc(F)c1F)n1cc(C(C)(N)CCC)nn1 (configuration not stated) [ML4123]
1100	CCCCC(C(=O)COc1c(F)c(F)cc(F)c1F)n1cc(C(C)(C)N)nn1 (configuration not stated) [ML4066]
7700	CCCCC(C(=O)COc1c(F)c(F)cc(F)c1F)n1cc(C(CCC)(CCC)NC)nn1 (configuration not stated) [ML5004]
420	CCCCC(C(=O)COc1c(F)c(F)cc(F)c1F)n1cc(C2(C)CCCN2)nn1 (configuration not stated) [ML6076]
> 20000	CCCCC(C(=O)COc1c(F)c(F)cc(F)c1F)n1cc(C2(N)CCN(C(C)=O)CC2)nn1 (configuration not stated) [ML4163]
700	CCCCC(C(=O)COc1c(F)c(F)cc(F)c1F)n1cc([C@@](C)(N)C2CCCCC2)nn1 (some centres not stated) [ML4046A]
> 100000	CCCCC(C(=O)COc1c(F)c(F)cc(F)c1F)n1cc(C(C)(N)Cc2ccccc2)nn1 (configuration not stated) [ML4053]
> 20000	CCCCC(C(=O)COc1c(F)c(F)cc(F)c1F)n1cc(C2(N)CCN(C(N)=O)CC2)nn1 (configuration not stated) [ML4154]

SMILES	IC50 [nM]
CCCCC(C(=O)COC(=O)c1c(C)cccc1C)n1cc(C2(N)CCCCC2)nn1 (configuration not stated) [ML4091]	11000
CCCCC(C#N)n1cc(C2(N)CCCCC2)nn1 (configuration not stated) [ML4101]	> 100000
CCCCC(C(=O)COc1c(F)c(F)cc(F)c1F)n1cc(C2(N)CCCCC2)nn1 (configuration not stated) [HN3019]	560
